US6342481B1, “Oligopeptides derived from C-reactive protein fragments” (priority 1993, dated 2002)
Residues, ends and D or L forms follow the SMILES beside them.

What was measured:
[1] = tested on: Sprague Dawley rats injected with LPS (Salmonella Enteritidis); assay: Survival of rats after intravenous LPS (septic shock test); assay type: in vivo, rat; details: male Sprague Dawley rats, LPS i.v. at dose giving about 30% survival, compound 3 μg/kg i.v. immediately after, monitored 7 days; control (LPS only) 23
Procedure: Male Sprague Dawley rats (175-200 g, Charles river, Calco, Italy) were intravenously injected with a dose of LPS (Salmonella Enteritidis, Sigma) in 0.2 ml of physiological solution, previously determined on the same batch of animals, as giving about 30% survival. Thereafter they were randomized into groups of at least 18 animals and each immediately inoculated intravenously with 3 μg/kg of some of the compounds representative of the invention. One group of animals was treated with LPS only and considered as the control. The animals were monitored for the following 7 days to determine their survival.

[2] = tested on: Wistar rats with left coronary artery ligation; assay: Cardioprotective activity following ischemia induced by occlusion of the left coronary artery in the anesthetized rat; assay type: in vivo; details: anesthetized male Wistar rats, 0.1 μg/kg/min i.v., left coronary artery ligated for 30 minutes
Text: The cardiovascular activity of the compounds of the invention was investigated by means of a test aiming at evaluating the cardioprotective activity following ischemia induced by the occlusion of the left coronary artery in the anestethized rat, performed substantially as described by C. Clark et al. Journ. Exp. Methods, 3, 357, 1980. It is known that the occlusion of the coronary artery causes several events altering the ECG-pattern including, among others, hypoxia, arrhythmias, with eventual death of the laboratory animals.
In this test, male Wistar rats, (350-450 g, Charles River) were divided into groups of at least 18 animals, anestethized with nembutal (65 mg/kg i.p.) and each connected to an electrocardiograph for continuously monitoring the ECG. The animals, maintained under artificial ventilation, underwent thoracotomy and, after incision of the pericardium, a suture thread was passed around the left coronary artery, near to its origins. The animals were then administered intravenously with 0.1 μg/kg/min of the compounds of the invention dissolved in saline. One group of animals (control group) were administered intravenously with saline (5 ml/kg/hr). After 15 minutes recovery, and provided that electocardiographic alteration was not recorded, the left coronary artery was ligated and the ligature was maintained for 30 minutes. During this period the animals were monitored and ventricular tachycardia (VT), ventricular fibrillations (VF) and mortality were7 assessed.

| Compound | Survival percentage [1] | Mortality % ([2]; control 29) | Incidence % V.F. (ventricular fibrillations) ([2]; control 86) | Incidence % V.T. (ventricular tachycardia) ([2]; control 100) |
| --- | --- | --- | --- | --- |
| CC(C)CN(C(=O)CN)[C@@H](CCCCN)C(=O)N1CCC[C@H]1C(=O)O [Example 9, H-Gly-(isoBut)Lys-Pro-OH.AcOH] | 39% | – | – | – |
| N=C(N)NCCC[C@H](NC(=O)[C@@H]1CCCN1C(=O)[C@@H]1CCCN1C(=O)CN)C(=O)O [Example 11, H-Gly-Pro-Pro-Arg-OH.AcOH] (H-GPPR-OH) | 57% | – | – | – |
| CCN[C@@H](CCCCN)C(=O)N1CCC[C@H]1C(=O)O [Example 12, H-(Et)Lys-Pro-OH.AcOH] | 44% | 12% | 75% | 10% |
| H-Gly-(Bzl)Lys-Pro-Arg-OH.2AcOH [Example 10] | 43% | – | – | – |
| H-Gly-(Et)Lys-Pro-Arg-OH.2AcOH [Example 15] | 33% | – | – | – |
| H-Gly-(Et)Lys-Pro-Lys-OH.AcOH [Example 14] | 48% | – | – | – |
